# From patent US6706663B2, “Herbicidal 3-heterocyclic substituted benzisothiazole and benzisoxazole compounds” (Wyeth, priority 2000, dated 2004)
# Assays:
# [1] = tested on: ORYSAT (Rice, Tebonnet); test: Flooded paddy, post-transplant rice tolerance; format: in vivo, Oryza sativa, (L.) Tebonnet; conditions: flooded paddy, post-transplant rice, rated 3-4 weeks after treatment, 0-9 rating scale
# In short: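 Two ten-day-old Tebonnet rice seedlings transplanted into silt loam, then flooded with water held at 1.5–3 cm above soil; herbicide applied post-transplant. Plants kept in greenhouse and rated visually 0–9 versus untreated control for stand, vigor, malformation, size and chlorosis.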
# [2] = tested on: ABUTH (Abutilon theophrasti); test: Preemergence herbicidal evaluation; format: in vivo, Medic.; conditions: preemergence, rated 4-5 weeks after treatment
# [3] = tested on: MOOVA (Monochoria vaginalis); test: Flooded paddy, postemergence weed control; format: in vivo, Presl.; conditions: postemergence weeds, rated 3-4 weeks after treatment
# In short: (§1)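 Weeds 3–5 cm tall and rice at 1.5–2.5 leaf stage in containers flooded 1.5–3 cm deep; compounds in 50/50 v/v aqueous/acetone injected into flood water at about 0.0320–0.2500 kg/ha. Greenhouse-held; visual 0–9 rating versus untreated control after three to four weeks.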
# [4] = tested on: ORYSAT (Rice, Tebonnet); test: Postemergence herbicidal evaluation; format: in vivo, Oryza sativa, (L.) Tebonnet
# In short: (§2)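 Seedlings grown about two weeks in flats, sprayed, then kept under standard greenhouse care. Rated visually 4–5 weeks after treatment on a 0–9 scale (stand, vigour, malformation, size, chlorosis, overall appearance) relative to untreated control; repeat tests averaged.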
# [5] = tested on: ECHORC (Echinochloa oryzoides); test: Flooded paddy, postemergence weed control; format: in vivo, Echinochloa oryzoides (Ard.) Fritsch.; conditions: postemergence weeds, rated 3-4 weeks after treatment
# In short: as §1
# [6] = tested on: ECHCG (Echinochloa crus-galli); test: Preemergence herbicidal evaluation; format: in vivo, (L.) Beau; conditions: preemergence, rated 4-5 weeks after treatment
# In short: (§3)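 Seeds planted in potting soil cups and sprayed preemergence with aqueous acetone compound solution. Greenhouse-grown; rated 4–5 weeks after treatment on a 0-9 visual scale (stand, vigor, malformation, size, chlorosis, appearance) versus control.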
# [7] = tested on: SETVI (Setaria viridis); test: Preemergence herbicidal evaluation; format: in vivo, (L.) Beau; conditions: preemergence, rated 4-5 weeks after treatment
# In short: as §3
# [8] = tested on: CYPSE (Cyperus serotinus); test: Flooded paddy, postemergence weed control; format: in vivo, Rottb.; conditions: postemergence weeds, rated 3-4 weeks after treatment
# In short: as §1
# [9] = tested on: SAGPY (Sagittaria pygmaea); test: Flooded paddy, postemergence weed control; format: in vivo, L.; conditions: postemergence weeds, rated 3-4 weeks after treatment
# In short: as §1
# [10] = tested on: MOOVA (Monochoria vaginalis); test: Flooded paddy, preemergence weed control; format: in vivo, Presl.; conditions: rated 3-4 weeks after treatment, 0-9 rating scale
# In short: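 In this preemergence paddy assay, weed seeds or organs are sown at up to 0.5 cm in silt loam and covered by 1.5–3 cm of water for the full test period. After treatment the pots are kept in a greenhouse, and herbicidal effect is rated 0-9 visually against a control.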
# [11] = tested on: SETVI (Setaria viridis); test: Postemergence herbicidal evaluation; format: in vivo, (L.) Beau
# In short: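 First, seedlings are raised in flats for about two weeks. Next, compound dispersed in 50/50 acetone/water with 0.5% TWEEN 20 is sprayed at 40 psi to deliver about 0.0040–1.000 kg/ha. Plants are then maintained in the greenhouse and rated 0-9 after four to five weeks.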
# [12] = tested on: ORYSAT (Rice, Tebonnet); test: Flooded paddy, post-transplant and postemergence rice tolerance; format: in vivo, Oryza sativa, (L.) Tebonnet; conditions: post-transplant rice, rated 3-4 weeks after treatment
# In short: as §1
# [13] = tested on: CYPIR (Cyperus iria); test: Flooded paddy, postemergence weed control; format: in vivo; conditions: postemergence weeds, rated 3-4 weeks after treatment
# In short: as §1
# [14] = tested on: TRZAWR (Wheat, Winter, cv Riband); test: Postemergence herbicidal evaluation; format: in vivo, Triticum aestivum
# In short: as §2
smiles,measurement,setting,value
"Cc1cscc1-c1nsc2ccc(-n3c(=O)cc(C(F)(F)F)n(C)c3=O)cc12 [Compound 26, 1-methyl-3-[3-(4-methyl-3-thienyl)-1,2-benzisothiazol-5-yl]-6-(trifluoromethyl)uracil]","herbicidal rating, ORYSAT (rice tolerance)",[1]; rate 0.0080 kg/ha,0.0
same,"herbicidal rating, ORYSAT (rice tolerance)",[1]; rate 0.0320 kg/ha,2.0
same,"herbicidal rating, ORYSAT (rice tolerance)",[1]; rate 0.1250 kg/ha,4.3
same,ABUTH preemergence herbicidal rating,[2]; Rate 0.0620 kg/ha,4.0
same,ABUTH preemergence herbicidal rating,[2]; Rate 0.1250 kg/ha,9.0
same,ABUTH preemergence herbicidal rating,[2]; Rate 0.2500 kg/ha,9.0
same,herbicide rating (0-9) MOOVA,[3]; 0.0320 kg/ha into flood water,4.0
same,herbicide rating (0-9) MOOVA,[3]; 0.0620 kg/ha into flood water,4.0
same,herbicide rating (0-9) MOOVA,[3]; 0.1250 kg/ha into flood water,6.0
same,"Postemergence herbicidal rating, ORYSAT",[4]; rate 0.0320 kg/ha,3.5
same,"Postemergence herbicidal rating, ORYSAT",[4]; rate 0.0620 kg/ha,4.5
same,herbicide rating (0-9) ECHORC,[5]; 0.0320 kg/ha into flood water,7.0
same,herbicide rating (0-9) ECHORC,[5]; 0.0620 kg/ha into flood water,9.0
same,herbicide rating (0-9) ECHORC,[5]; 0.1250 kg/ha into flood water,9.0
same,ECHCG preemergence herbicidal rating,[6]; Rate 0.0620 kg/ha,6.5
same,ECHCG preemergence herbicidal rating,[6]; Rate 0.1250 kg/ha,9.0
same,ECHCG preemergence herbicidal rating,[6]; Rate 0.2500 kg/ha,9.0
same,SETVI preemergence herbicidal rating,[7]; Rate 0.0620 kg/ha,9.0
same,SETVI preemergence herbicidal rating,[7]; Rate 0.1250 kg/ha,9.0
same,SETVI preemergence herbicidal rating,[7]; Rate 0.2500 kg/ha,9.0
same,herbicide rating (0-9) CYPSE,[8]; 0.0320 kg/ha into flood water,7.0
same,herbicide rating (0-9) CYPSE,[8]; 0.0620 kg/ha into flood water,7.0
same,herbicide rating (0-9) CYPSE,[8]; 0.1250 kg/ha into flood water,7.0
same,herbicide rating (0-9) SAGPY,[9]; 0.0320 kg/ha into flood water,0.0
same,herbicide rating (0-9) SAGPY,[9]; 0.0620 kg/ha into flood water,0.0
same,herbicide rating (0-9) SAGPY,[9]; 0.1250 kg/ha into flood water,0.0
same,"herbicidal rating, MOOVA",[10]; rate 0.0080 kg/ha,9.0
same,"herbicidal rating, MOOVA",[10]; rate 0.0320 kg/ha,9.0
same,"herbicidal rating, MOOVA",[10]; rate 0.1250 kg/ha,9.0
same,"Postemergence herbicidal rating, SETVI",[11]; rate 0.0320 kg/ha,7.0
same,"Postemergence herbicidal rating, SETVI",[11]; rate 0.0620 kg/ha,9.0
same,herbicide rating (0-9) ORYSAT (rice tolerance),[12]; 0.0320 kg/ha into flood water,4.0
same,herbicide rating (0-9) ORYSAT (rice tolerance),[12]; 0.0620 kg/ha into flood water,5.0
same,herbicide rating (0-9) ORYSAT (rice tolerance),[12]; 0.1250 kg/ha into flood water,6.0
same,herbicide rating (0-9) CYPIR,[13]; 0.0320 kg/ha into flood water,9.0
same,herbicide rating (0-9) CYPIR,[13]; 0.0620 kg/ha into flood water,9.0
same,herbicide rating (0-9) CYPIR,[13]; 0.1250 kg/ha into flood water,9.0
same,"Postemergence herbicidal rating, TRZAWR",[14]; rate 0.0320 kg/ha,3.5
same,"Postemergence herbicidal rating, TRZAWR",[14]; rate 0.0620 kg/ha,4.5
